In patent US20020009713A1, “Methods for identifying modulators of neuronal growth” (priority 2000, published 2002):

Tests used:
[1] = system: rat sympathetic neurons; test: MTT survival assay of cultured sympathetic neurons; assay type: cell-based; conditions: cultured in NGF or NGF+KCl
Protocol: Neurons were plated at low density (approximately one ganglion/well) in Nunclon™ 4-well culture dishes (Gibco BRL, Burlington, Ontario, Canada), coated with either rat tail collagen or poly-D-lysine and laminin (both from Collaborative Biomedical Products, Bedford, Mass.). Culture medium was UltraCulture (BioWhittaker, Walkersville, Md.), supplemented with 3% rat serum (Harlan Bioproducts, Madison, Wis.), 2 mM glutamine, 100 U/ml penicillin, 100 μg/ml streptomycin (all from BioWhittaker), and for the first two days, 7 μM cytosine arabinoside (Sigma-Aldrich Canada Ltd., Oakville, Ontario, Canada).
NGF-dependent neurons were selected by culturing sympathetic neurons for five days in the presence of 50 ng/ml NGF. Neurons were washed three times for one hour each in neurotrophin-free media, and were then fed with media containing 10 ng/ml NGF alone, or various concentrations of NGF plus either 100 ng/ml BDNF, 10 μg/ml αBDNF, or a 1:100 dilution of antiserum containing the p75^NTR antibody, REX (Weskamp and Reichardt, Neuron 6: 649-663, 1991). Each condition was repeated in triplicate, and analysis of survival was performed 48 hours later by using nonradioactive cell proliferation (MTT) assays (Celltitre 96; Promega; Belliveau et al., J. Cell Biol. 136:375-388, 1997). Specifically, 50 μl of the MTT reagent was added to 500 μl media in each well, and incubated for two hours at 37° C. After aspiration of the MTT containing media, 100 μl of a 0.065N HCl/isopropanol mixture was added to each well to lyse the cells, and colorimetric analysis was performed using an ELISA reader. For rat sympathetic neurons, 10 ng/ml NGF represents 100% survival, therefore all other values were considered to be relative to 10 ng/ml NGF. For mouse neurons, 7.5 ng/ml NGF represents 100% survival, and was thus considered to be the 100% survival threshold for neuritogenesis experiments.

[2] = system: postnatal sympathetic neurons (SCG neurons); test: Campenot chamber neurite growth assay; assay type: cell-based, rat; conditions: 50 μM U0126 with 10 ng/ml NGF
Protocol: We have devised a method for quantitatively assaying neurite growth. In this assay, the cell bodies of neurons are plated in Campenot chamber, a compartmentalized dish that has scratches or grooves in the matrix. The compartments are physically separated from each other by, for example, a Teflon® divider. The cells are placed in the central compartment. The scratches allow neurites to extend from the neuronal cell bodies and into adjacent compartments (FIG. 10A).
Neurites were induced to grow into HGF supplemented side compartments, and then visualized by staining against tubulin. Adenoviral-mediated expression of DN MEK in SCG neurons decreased neuritogenesis by 39% (FIGS. 10B, 10C).
We cultured postnatal sympathetic neurons in Campenot chambers. […] Addition of 50 μM U0126 in conjunction with 10 ng/ml NGF abrogates this growth while having no effects on cell survival (FIG. 15).

[3] = system: sympathetic neurons exogenously expressing TrkB; conditions: U0126 added with 25 ng/ml BDNF, dose-dependent
Protocol: We transduced postnatal sympathetic neurons with an adenovirus encoding TrkB. In Campenot dishes, these neurons grow processes into compartments containing 25 ng/ml BDNF.

[4] = system: sympathetic neurons; test: Quantitative dot-blot of MAP2 association with microtubules and microtubule stability; assay type: cell-based, rat; conditions: neurons maintained in NGF or NGF+KCl
Protocol: FIG. 22 is a schematic illustration showing immuno-dot blot analysis of MAP2 association and tubulin dynamics in SCG neurons. […]
Microtubules were isolated from cultured sympathetic neurons, and the relative amount of MAP2 present per microgram tubulin was determined using quantitative dot-blot analysis. […] Depolarization enhances MAP2 levels and CamKII phosphorylation in sympathetic neurons. We performed western blot analysis of sympathetic neurons treated with 10 ng/ml NGF, 50 mM KCl, or NGF+KCl. Lysates containing equal amounts of protein were separated by SDS-PAGE, transferred to nitrocellulose, and then probed for MAP2, phosphorylated-CamKII, phosphorylated-ERKs, or total ERK protein. KCl increases the amount of MAP2 present in sympathetic neurons, and enhances CamKII phosphorylation.
Inhibition of either CamKII or MEK is sufficient to inhibit activitydependent dendrite formation. Immunocytochemical analysis for MAP2 on sympathetic neurons cultured in the presence of NGF+KCl with or without 10 um KN62, 75 um PD98059, 100 nM H-89 or 10 uM forskolin. […] In this study, microtubule stability was determined in sympathetic neurons maintained in NGF or NGF+KCl, and treated with selective pharmacological inhibitors.

N#CC(=C(/N)Sc1ccccc1N)/C(C#N)=C(\N)Sc1ccccc1N [U0126]
survival of sympathetic neurons (MTT) [1]: None of these compounds perturbs
NGF-induced neuronal growth into side compartment [2]: abrogates
cell survival [2]: no effects
TrkB-mediated neuronal growth [3]: dramatically reduced
KCl-induced increase in microtubule stability [4]: completely inhibit
